According to article PMC6591251, “Discovery of potent necroptosis inhibitors targeting RIPK1 kinase activity for the treatment of inflammatory disorder and cancer metastasis” (Cell Death & Disease, 2019):

Key:
Assay in all cases: RBC kinase panel
Assay type in all cases: biochemical
Details in all cases: ATP 10 μM, Data1, Data2
[1] = molecular target: T1, ERBB4/HER4 (Homo sapiens, UniProt Q15303)
T1 construct: purchased Reaction Biology Corporation
Outline: (§1)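 ATP was held at 10 μM in all reactions while the compound, at 1 μM, was profiled against 369 human kinases; each measurement was run twice.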

[2] = molecular target: T2, DMPK (Homo sapiens, UniProt Q09013)
T2 construct: purchased Reaction Biology Corporation
Outline: as §1

[3] = molecular target: T3, GSK3b (Homo sapiens, UniProt P49841)
T3 construct: purchased Reaction Biology Corporation
Outline: as §1

[4] = molecular target: T4, ZIPK/DAPK3 (Homo sapiens, UniProt O43293)
T4 construct: purchased Reaction Biology Corporation
Outline: as §1

[5] = molecular target: T5, PKCepsilon (Homo sapiens, UniProt Q02156)
T5 construct: purchased Reaction Biology Corporation
Outline: as §1

[6] = molecular target: T6, HGK/MAP4K4 (Homo sapiens, UniProt O95819)
T6 construct: purchased Reaction Biology Corporation
Outline: as §1

[7] = molecular target: T7, c-Src (Homo sapiens, UniProt P12931)
T7 construct: purchased Reaction Biology Corporation
Outline: as §1

[8] = molecular target: T8, MEKK2 (Homo sapiens, UniProt Q9Y2U5)
T8 construct: purchased Reaction Biology Corporation
Outline: as §1

[9] = molecular target: T9, CDK18/cyclin Y (PCTK3) (Homo sapiens, UniProt Q07002)
T9 construct: purchased Reaction Biology Corporation
Outline: as §1

[10] = molecular target: T10, TIE2/TEK (Homo sapiens, UniProt Q02763)
T10 construct: purchased Reaction Biology Corporation
Outline: as §1

[11] = molecular target: T11, LCK (Homo sapiens, UniProt P06239)
T11 construct: purchased Reaction Biology Corporation
Outline: as §1

[12] = molecular target: T12, MST2/STK3 (Homo sapiens, UniProt Q13188)
T12 construct: purchased Reaction Biology Corporation
Outline: as §1

[13] = molecular target: T13, PIM3 (Homo sapiens, UniProt Q86V86)
T13 construct: purchased Reaction Biology Corporation
Outline: as §1

[14] = molecular target: T14, STK16 (Homo sapiens, UniProt O75716)
T14 construct: purchased Reaction Biology Corporation
Outline: as §1

[15] = molecular target: T15, P38b/MAPK11 (Homo sapiens, UniProt Q15759)
T15 construct: purchased Reaction Biology Corporation
Outline: as §1

[16] = molecular target: T16, TAOK3/JIK (Homo sapiens, UniProt Q9H2K8)
T16 construct: purchased Reaction Biology Corporation
Outline: as §1

[17] = molecular target: T17, STK38/NDR1 (Homo sapiens, UniProt Q15208)
T17 construct: purchased Reaction Biology Corporation
Outline: as §1

[18] = molecular target: T18, RAF1 (Homo sapiens, UniProt P04049)
T18 construct: purchased Reaction Biology Corporation
Outline: as §1

[19] = molecular target: T19, CK1d (Homo sapiens, UniProt P48730)
T19 construct: purchased Reaction Biology Corporation
Outline: as §1

[20] = molecular target: T20, MSK1/RPS6KA5 (Homo sapiens, UniProt O75582)
T20 construct: purchased Reaction Biology Corporation
Outline: as §1

[21] = molecular target: T21, AKT2 (Homo sapiens, UniProt P31751)
T21 construct: purchased Reaction Biology Corporation
Outline: as §1

[22] = molecular target: T22, STK33 (Homo sapiens, UniProt Q9BYT3)
T22 construct: purchased Reaction Biology Corporation
Outline: as §1

[23] = molecular target: T23, LYN (Homo sapiens, UniProt P07948)
T23 construct: purchased Reaction Biology Corporation
Outline: as §1

[24] = molecular target: T24, PKCb2 (Homo sapiens, UniProt P05771)
T24 construct: purchased Reaction Biology Corporation
Outline: as §1

[25] = molecular target: T25, WNK1 (Homo sapiens, UniProt Q9H4A3)
T25 construct: purchased Reaction Biology Corporation
Outline: as §1

[26] = molecular target: T26, FYN (Homo sapiens, UniProt P06241)
T26 construct: purchased Reaction Biology Corporation
Outline: as §1

[27] = molecular target: T27, MEKK3 (Homo sapiens, UniProt Q99759)
T27 construct: purchased Reaction Biology Corporation
Outline: as §1

[28] = molecular target: T28, PKCtheta (Homo sapiens, UniProt Q04759)
T28 construct: purchased Reaction Biology Corporation
Outline: as §1

[29] = molecular target: T29, PYK2 (Homo sapiens, UniProt Q14289)
T29 construct: purchased Reaction Biology Corporation
Outline: as §1

[30] = molecular target: T30, PKN3/PRK3 (Homo sapiens, UniProt Q6P5Z2)
T30 construct: purchased Reaction Biology Corporation
Outline: as §1

[31] = molecular target: T31, KSR1 (Homo sapiens, UniProt Q8IVT5)
T31 construct: purchased Reaction Biology Corporation
Outline: as §1

[32] = molecular target: T32, MAPKAPK3 (Homo sapiens, UniProt Q16644)
T32 construct: purchased Reaction Biology Corporation
Outline: as §1

[33] = molecular target: T33, TSSK3/STK22C (Homo sapiens, UniProt Q96PN8)
T33 construct: purchased Reaction Biology Corporation
Outline: as §1

T7 sequence (P12931 whole entry): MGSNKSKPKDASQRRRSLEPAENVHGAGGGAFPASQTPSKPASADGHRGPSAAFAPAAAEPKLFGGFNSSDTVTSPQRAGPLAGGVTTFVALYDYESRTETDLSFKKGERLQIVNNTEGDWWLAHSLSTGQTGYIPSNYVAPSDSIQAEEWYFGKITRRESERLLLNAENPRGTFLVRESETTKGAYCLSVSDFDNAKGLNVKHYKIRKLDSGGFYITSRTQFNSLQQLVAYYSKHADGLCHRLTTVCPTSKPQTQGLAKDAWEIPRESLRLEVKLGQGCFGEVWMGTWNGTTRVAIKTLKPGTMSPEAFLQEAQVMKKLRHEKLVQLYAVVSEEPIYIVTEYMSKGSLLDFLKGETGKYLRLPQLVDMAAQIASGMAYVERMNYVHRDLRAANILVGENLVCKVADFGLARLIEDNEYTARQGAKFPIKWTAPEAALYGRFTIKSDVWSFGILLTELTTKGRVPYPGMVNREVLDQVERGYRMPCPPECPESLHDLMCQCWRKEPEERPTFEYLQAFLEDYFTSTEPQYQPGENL
T26 sequence (P06241 whole entry): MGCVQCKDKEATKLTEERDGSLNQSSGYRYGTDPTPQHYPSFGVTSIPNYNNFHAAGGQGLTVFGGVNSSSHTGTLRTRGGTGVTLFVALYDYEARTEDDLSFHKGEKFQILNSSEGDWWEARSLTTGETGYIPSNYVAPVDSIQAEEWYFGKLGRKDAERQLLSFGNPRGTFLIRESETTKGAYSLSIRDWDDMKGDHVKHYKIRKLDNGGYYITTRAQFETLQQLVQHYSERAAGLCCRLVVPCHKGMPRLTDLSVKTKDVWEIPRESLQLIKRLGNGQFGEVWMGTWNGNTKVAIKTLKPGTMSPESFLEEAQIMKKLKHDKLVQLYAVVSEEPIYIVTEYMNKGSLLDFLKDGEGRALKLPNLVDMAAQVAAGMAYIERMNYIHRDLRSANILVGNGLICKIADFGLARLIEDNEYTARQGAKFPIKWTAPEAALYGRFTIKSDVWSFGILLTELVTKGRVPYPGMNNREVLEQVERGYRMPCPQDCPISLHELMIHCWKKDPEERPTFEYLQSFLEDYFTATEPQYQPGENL
T18 sequence (P04049 whole entry): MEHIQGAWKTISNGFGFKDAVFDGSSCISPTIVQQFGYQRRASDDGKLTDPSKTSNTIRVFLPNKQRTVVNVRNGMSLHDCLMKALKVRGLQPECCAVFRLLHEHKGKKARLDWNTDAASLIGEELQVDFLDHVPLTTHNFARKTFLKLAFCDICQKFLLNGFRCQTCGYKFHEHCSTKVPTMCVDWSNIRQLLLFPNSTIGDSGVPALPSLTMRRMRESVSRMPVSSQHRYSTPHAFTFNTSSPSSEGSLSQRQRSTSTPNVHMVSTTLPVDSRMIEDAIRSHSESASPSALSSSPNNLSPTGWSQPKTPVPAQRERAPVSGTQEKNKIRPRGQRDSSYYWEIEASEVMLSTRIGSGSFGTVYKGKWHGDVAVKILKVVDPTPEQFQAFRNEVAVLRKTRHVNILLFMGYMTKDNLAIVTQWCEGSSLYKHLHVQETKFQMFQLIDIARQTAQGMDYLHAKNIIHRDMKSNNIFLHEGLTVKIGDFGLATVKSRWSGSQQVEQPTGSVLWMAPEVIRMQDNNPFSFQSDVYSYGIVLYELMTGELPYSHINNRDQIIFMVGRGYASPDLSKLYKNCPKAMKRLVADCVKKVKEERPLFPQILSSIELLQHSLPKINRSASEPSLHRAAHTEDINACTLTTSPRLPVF
T17 sequence (Q15208 whole entry): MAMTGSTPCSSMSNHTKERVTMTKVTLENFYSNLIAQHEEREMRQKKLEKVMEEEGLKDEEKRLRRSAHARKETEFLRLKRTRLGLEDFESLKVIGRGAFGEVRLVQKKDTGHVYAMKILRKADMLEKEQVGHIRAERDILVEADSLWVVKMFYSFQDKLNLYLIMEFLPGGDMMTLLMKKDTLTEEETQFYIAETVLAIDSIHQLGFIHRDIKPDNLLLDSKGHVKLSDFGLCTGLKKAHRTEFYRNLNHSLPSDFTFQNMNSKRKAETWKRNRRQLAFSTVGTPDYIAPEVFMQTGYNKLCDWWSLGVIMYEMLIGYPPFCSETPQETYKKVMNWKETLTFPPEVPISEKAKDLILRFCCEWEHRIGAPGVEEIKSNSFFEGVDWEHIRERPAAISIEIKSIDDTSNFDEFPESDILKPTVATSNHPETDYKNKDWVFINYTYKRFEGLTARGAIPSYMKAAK
T33 sequence (Q96PN8 whole entry): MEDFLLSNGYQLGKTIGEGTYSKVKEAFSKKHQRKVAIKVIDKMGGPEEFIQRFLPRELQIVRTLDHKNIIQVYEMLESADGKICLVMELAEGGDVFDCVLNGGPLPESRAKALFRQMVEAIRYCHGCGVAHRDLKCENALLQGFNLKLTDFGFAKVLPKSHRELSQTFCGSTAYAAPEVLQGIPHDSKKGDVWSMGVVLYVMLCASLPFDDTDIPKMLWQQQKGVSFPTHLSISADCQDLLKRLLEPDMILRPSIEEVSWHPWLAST
T12 sequence (Q13188 whole entry): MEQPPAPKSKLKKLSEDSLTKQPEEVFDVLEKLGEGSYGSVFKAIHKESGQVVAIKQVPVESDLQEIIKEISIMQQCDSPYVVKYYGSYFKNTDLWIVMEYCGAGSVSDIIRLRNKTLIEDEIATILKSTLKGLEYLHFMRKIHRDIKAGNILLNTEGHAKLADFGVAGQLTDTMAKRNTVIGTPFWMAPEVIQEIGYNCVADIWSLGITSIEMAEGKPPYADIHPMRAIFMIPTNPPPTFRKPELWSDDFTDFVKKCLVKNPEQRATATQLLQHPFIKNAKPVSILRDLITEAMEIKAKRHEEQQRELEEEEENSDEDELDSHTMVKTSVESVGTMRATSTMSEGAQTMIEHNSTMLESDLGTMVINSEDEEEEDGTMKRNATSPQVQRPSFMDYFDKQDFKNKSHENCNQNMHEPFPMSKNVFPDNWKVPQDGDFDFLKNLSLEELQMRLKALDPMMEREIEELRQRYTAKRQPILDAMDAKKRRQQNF
T23 sequence (P07948 whole entry): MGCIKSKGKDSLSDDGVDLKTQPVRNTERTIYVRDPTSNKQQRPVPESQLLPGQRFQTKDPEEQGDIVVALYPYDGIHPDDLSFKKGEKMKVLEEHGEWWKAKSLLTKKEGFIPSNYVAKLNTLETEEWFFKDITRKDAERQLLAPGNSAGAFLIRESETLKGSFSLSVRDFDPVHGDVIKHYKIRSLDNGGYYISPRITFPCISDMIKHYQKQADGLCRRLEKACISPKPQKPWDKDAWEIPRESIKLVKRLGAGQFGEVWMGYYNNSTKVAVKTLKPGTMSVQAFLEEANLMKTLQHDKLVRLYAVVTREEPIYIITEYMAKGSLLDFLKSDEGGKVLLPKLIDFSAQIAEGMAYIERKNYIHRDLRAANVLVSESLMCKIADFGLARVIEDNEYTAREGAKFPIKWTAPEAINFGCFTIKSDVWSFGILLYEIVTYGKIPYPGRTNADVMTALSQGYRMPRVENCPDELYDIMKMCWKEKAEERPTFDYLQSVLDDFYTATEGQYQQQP
T28 sequence (Q04759 whole entry): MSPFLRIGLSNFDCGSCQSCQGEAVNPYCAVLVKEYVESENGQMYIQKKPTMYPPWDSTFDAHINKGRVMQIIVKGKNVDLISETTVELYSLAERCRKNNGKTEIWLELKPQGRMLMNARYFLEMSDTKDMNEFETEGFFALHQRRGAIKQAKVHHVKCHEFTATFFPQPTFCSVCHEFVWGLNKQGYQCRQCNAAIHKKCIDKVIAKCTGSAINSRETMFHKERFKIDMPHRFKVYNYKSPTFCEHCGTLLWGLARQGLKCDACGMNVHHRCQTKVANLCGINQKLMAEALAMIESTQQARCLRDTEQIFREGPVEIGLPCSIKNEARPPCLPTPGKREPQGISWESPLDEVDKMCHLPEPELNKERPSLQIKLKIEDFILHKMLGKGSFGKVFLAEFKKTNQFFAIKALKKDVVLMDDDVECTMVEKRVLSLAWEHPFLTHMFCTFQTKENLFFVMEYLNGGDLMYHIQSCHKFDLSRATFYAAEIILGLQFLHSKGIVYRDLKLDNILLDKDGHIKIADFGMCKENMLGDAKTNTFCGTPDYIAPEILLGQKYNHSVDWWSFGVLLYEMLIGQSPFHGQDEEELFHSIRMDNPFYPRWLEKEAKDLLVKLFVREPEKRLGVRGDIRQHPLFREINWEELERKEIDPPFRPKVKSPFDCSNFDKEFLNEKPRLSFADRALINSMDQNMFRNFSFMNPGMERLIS
T4 sequence (O43293 whole entry): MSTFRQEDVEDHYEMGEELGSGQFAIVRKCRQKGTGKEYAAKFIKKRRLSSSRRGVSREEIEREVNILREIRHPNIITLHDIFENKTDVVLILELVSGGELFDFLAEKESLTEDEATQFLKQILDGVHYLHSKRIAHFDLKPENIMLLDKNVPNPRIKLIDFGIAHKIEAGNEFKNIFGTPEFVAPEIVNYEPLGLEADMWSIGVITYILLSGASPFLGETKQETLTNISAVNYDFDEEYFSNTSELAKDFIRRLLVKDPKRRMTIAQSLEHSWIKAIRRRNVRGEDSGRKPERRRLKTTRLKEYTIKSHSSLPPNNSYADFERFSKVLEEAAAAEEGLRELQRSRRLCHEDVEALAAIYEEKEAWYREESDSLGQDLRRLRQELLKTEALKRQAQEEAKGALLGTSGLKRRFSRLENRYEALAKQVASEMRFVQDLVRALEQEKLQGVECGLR

SMILES: CC(=O)Nc1nc2ccc(-c3cnc(C)c(NC(=O)OC4CCCCC4)c3)cc2s1 [PK68, cyclohexyl (5-(2-acetamidobenzo[d]thiazol-6-yl)-2-methylpyridin-3-yl)carbamate]
- Activity% ([1]; 1 μM): 99.02%
- activity at 1 µM [1]: 99.7%
- Activity% ([2]; 1 μM): 100.30%
- activity at 1 µM [2]: 101%
- Activity% ([3]; 1 μM): 97.24%
- activity at 1 µM [3]: 98.1%
- Activity% ([4]; 1 μM): 98.55%
- activity at 1 µM [4]: 100%
- Activity% ([5]; 1 μM): 98.93%
- activity at 1 µM [5]: 99.5%
- Activity% ([6]; 1 μM): 82.64%
- activity at 1 µM [6]: 84.4%
- Activity% ([7]; 1 μM): 95.17%
- activity at 1 µM [7]: 96.3%
- Activity% ([8]; 1 μM): 85.76%
- activity at 1 µM [8]: 89.8%
- Activity% ([9]; 1 μM): 106.96%
- activity at 1 µM [9]: 107%
- Activity% ([10]; 1 μM): 82.66%
- activity at 1 µM [10]: 83.4%
- Activity% ([11]; 1 μM): 62.75%
- activity at 1 µM [11]: 62.9%
- Activity% ([12]; 1 μM): 109.16%
- activity at 1 µM [12]: 109%
- Activity% ([13]; 1 μM): 101.62%
- activity at 1 µM [13]: 104%
- Activity% ([14]; 1 μM): 85.85%
- activity at 1 µM [14]: 88.2%
- Activity% ([15]; 1 μM): 102.60%
- activity at 1 µM [15]: 103%
- Activity% ([16]; 1 μM): 93.52%
- activity at 1 µM [16]: 94.6%
- Activity% ([17]; 1 μM): 96.05%
- activity at 1 µM [17]: 98.9%
- Activity% ([18]; 1 μM): 75.37%
- activity at 1 µM [18]: 76.1%
- Activity% ([19]; 1 μM): 103.42%
- activity at 1 µM [19]: 105%
- Activity% ([20]; 1 μM): 93.86%
- activity at 1 µM [20]: 94%
- Activity% ([21]; 1 μM): 96.89%
- activity at 1 µM [21]: 97.5%
- Activity% ([22]; 1 μM): 91.58%
- activity at 1 µM [22]: 91.6%
- Activity% ([23]; 1 μM): 92.90%
- activity at 1 µM [23]: 95.3%
- Activity% ([24]; 1 μM): 98.56%
- activity at 1 µM [24]: 100%
- Activity% ([25]; 1 μM): 111.38%
- activity at 1 µM [25]: 112%
- Activity% ([26]; 1 μM): 102.88%
- activity at 1 µM [26]: 104%
- Activity% ([27]; 1 μM): 111.45%
- activity at 1 µM [27]: 115%
- Activity% ([28]; 1 μM): 97.50%
- activity at 1 µM [28]: 101%
- Activity% ([29]; 1 μM): 95.64%
- activity at 1 µM [29]: 95.9%
- Activity% ([30]; 1 μM): 92.58%
- activity at 1 µM [30]: 94.1%
- Activity% ([31]; 1 μM): 101.02%
- activity at 1 µM [31]: 102%
- Activity% ([32]; 1 μM): 100.67%
- activity at 1 µM [32]: 102%
- Activity% ([33]; 1 μM): 103.77%
- activity at 1 µM [33]: 104%
